Values after ≈ are worked out from the molar mass of the structure shown.
Assays:
Type in all cases: functional
Streptococcus pneumoniae [1] = assay: Antibacterial activity against erythromycin-resistant Streptococcus pneumoniae B1 expressing erm gene by broth microdilution method
Streptococcus pneumoniae [2] = assay: Antibacterial activity against erythromycin-resistant Streptococcus pneumoniae A22072 expressing mef gene by broth microdilution method
Streptococcus pneumoniae [3] = assay: Antibacterial activity against erythromycin-susceptible Streptococcus pneumoniae ATCC 49619 by broth microdilution method
Streptococcus pneumoniae [4] = assay: Antibacterial activity against erythromycin-resistant Streptococcus pneumoniae AB11 expressing erm and mef genes by broth microdilution method

Structure (SMILES)	MIC (Streptococcus pneumoniae [1])	MIC (Streptococcus pneumoniae [2])	MIC (Streptococcus pneumoniae [3])	MIC (Streptococcus pneumoniae [4])
CC[C@H]1OC(=O)[C@H](C)[C@@H](O[C@H]2C[C@@](C)(OC)[C@@H](OC(=O)NCCc3ccc(O)cc3)[C@H](C)O2)[C@H](C)[C@@H](O[C@@H]2O[C@H](C)C[C@H](N(C)C)[C@H]2O)[C@](C)(O)C[C@@H](C)CN(C)[C@H](C)[C@H]2OC(=O)O[C@@]21C	8 µg/mL (≈ 8.53 µM)	1 µg/mL (≈ 1.07 µM)	< 0.03 µg/mL	4 µg/mL (≈ 4.26 µM)
CCCCNC(=O)O[C@@H]1[C@@H](C)N(C)C[C@H](C)C[C@@](C)(O)[C@H](O[C@@H]2O[C@H](C)C[C@H](N(C)C)[C@H]2O)[C@@H](C)[C@H](O[C@H]2C[C@@](C)(OC)[C@@H](OC(=O)NCCc3ccc(O)cc3)[C@H](C)O2)[C@@H](C)C(=O)O[C@H](CC)[C@@]1(C)O	0.25 µg/mL (≈ 0.247 µM)	1 µg/mL (≈ 0.989 µM)	< 0.03 µg/mL	128 µg/mL (≈ 127 µM)
CC[C@H]1OC(=O)[C@H](C)[C@@H](O[C@H]2C[C@@](C)(OC)[C@@H](OC(=O)NCCc3ccccc3Cl)[C@H](C)O2)[C@H](C)[C@@H](O[C@@H]2O[C@H](C)C[C@H](N(C)C)[C@H]2O)[C@](C)(O)C[C@@H](C)CN(C)[C@H](C)[C@@H](OC(=O)NCc2ccccc2)[C@]1(C)O	0.25 µg/mL (≈ 0.235 µM)	0.25 µg/mL (≈ 0.235 µM)	< 0.03 µg/mL	4 µg/mL (≈ 3.76 µM)
CC[C@H]1OC(=O)[C@H](C)[C@@H](O[C@H]2C[C@@](C)(OC)[C@@H](OC(=O)NCCc3ccccc3Cl)[C@H](C)O2)[C@H](C)[C@@H](O[C@@H]2O[C@H](C)C[C@H](N(C)C)[C@H]2O)[C@](C)(O)C[C@@H](C)CN(C)[C@H](C)[C@H]2OC(=O)O[C@@]21C	8 µg/mL (≈ 8.36 µM)	0.25 µg/mL (≈ 0.261 µM)	< 0.03 µg/mL	2 µg/mL (≈ 2.09 µM)
CCCCCNC(=O)O[C@@H]1[C@@H](C)N(C)C[C@H](C)C[C@@](C)(O)[C@H](O[C@@H]2O[C@H](C)C[C@H](N(C)C)[C@H]2O)[C@@H](C)[C@H](O[C@H]2C[C@@](C)(OC)[C@@H](OC(=O)NCCc3ccccc3Cl)[C@H](C)O2)[C@@H](C)C(=O)O[C@H](CC)[C@@]1(C)O	0.5 µg/mL (≈ 0.479 µM)	0.5 µg/mL (≈ 0.479 µM)	< 0.03 µg/mL	16 µg/mL (≈ 15.3 µM)
CC[C@H]1OC(=O)[C@H](C)[C@@H](O[C@H]2C[C@@](C)(OC)[C@@H](O)[C@H](C)O2)[C@H](C)[C@@H](O[C@@H]2O[C@H](C)C[C@H](N(C)C)[C@H]2O)[C@](C)(O)C[C@@H](C)CN(C)[C@H](C)[C@@H](O)[C@]1(C)O [AZITHROMYCIN]	128 µg/mL (≈ 171 µM)	4 µg/mL (≈ 5.34 µM)	< 0.03 µg/mL	256 µg/mL (≈ 342 µM)
CC[C@H]1OC(=O)[C@H](C)[C@@H](O[C@H]2C[C@@](C)(OC)[C@@H](OC(=O)NCc3ccc(F)cc3)[C@H](C)O2)[C@H](C)[C@@H](O[C@@H]2O[C@H](C)C[C@H](N(C)C)[C@H]2O)[C@](C)(O)C[C@@H](C)CN(C)[C@H](C)[C@@H](OC(=O)NCCc2ccccc2Cl)[C@]1(C)O	0.25 µg/mL (≈ 0.231 µM)	0.12 µg/mL (≈ 0.111 µM)	< 0.03 µg/mL	2 µg/mL (≈ 1.85 µM)
CC[C@H]1OC(=O)[C@H](C)[C@@H](O[C@H]2C[C@@](C)(OC)[C@@H](OC(=O)NCCc3ccc(O)cc3)[C@H](C)O2)[C@H](C)[C@@H](O[C@@H]2O[C@H](C)C[C@H](N(C)C)[C@H]2O)[C@](C)(O)C[C@@H](C)CN(C)[C@H](C)[C@@H](OC(=O)NCc2ccccc2)[C@]1(C)O	0.25 µg/mL (≈ 0.239 µM)	0.12 µg/mL (≈ 0.115 µM)	< 0.03 µg/mL	128 µg/mL (≈ 122 µM)
CC[C@H]1OC(=O)[C@H](C)[C@@H](O[C@H]2C[C@@](C)(OC)[C@@H](OC(=O)NCc3ccc(F)cc3)[C@H](C)O2)[C@H](C)[C@@H](O[C@@H]2O[C@H](C)C[C@H](N(C)C)[C@H]2O)[C@](C)(O)C[C@@H](C)CN(C)[C@H](C)[C@@H](OC(=O)NCCc2ccccc2)[C@]1(C)O	0.25 µg/mL (≈ 0.239 µM)	0.06 µg/mL (≈ 0.0573 µM)	< 0.03 µg/mL	32 µg/mL (≈ 30.6 µM)
CCCCCNC(=O)O[C@@H]1[C@@H](C)N(C)C[C@H](C)C[C@@](C)(O)[C@H](O[C@@H]2O[C@H](C)C[C@H](N(C)C)[C@H]2O)[C@@H](C)[C@H](O[C@H]2C[C@@](C)(OC)[C@@H](OC(=O)NCc3ccc(OC)cc3)[C@H](C)O2)[C@@H](C)C(=O)O[C@H](CC)[C@@]1(C)O	0.5 µg/mL (≈ 0.488 µM)	1 µg/mL (≈ 0.975 µM)	0.06 µg/mL (≈ 0.0585 µM)	32 µg/mL (≈ 31.2 µM)
CCCCNC(=O)O[C@@H]1[C@@H](C)N(C)C[C@H](C)C[C@@](C)(O)[C@H](O[C@@H]2O[C@H](C)C[C@H](N(C)C)[C@H]2O)[C@@H](C)[C@H](O[C@H]2C[C@@](C)(OC)[C@@H](OC(=O)NCc3ccc(OC)cc3)[C@H](C)O2)[C@@H](C)C(=O)O[C@H](CC)[C@@]1(C)O	0.5 µg/mL (≈ 0.494 µM)	1 µg/mL (≈ 0.989 µM)	0.06 µg/mL (≈ 0.0593 µM)	128 µg/mL (≈ 127 µM)
CC[C@H]1OC(=O)[C@H](C)[C@@H](O[C@H]2C[C@@](C)(OC)[C@@H](O)[C@H](C)O2)[C@H](C)[C@@H](O[C@@H]2O[C@H](C)C[C@H](N(C)C)[C@H]2O)[C@](C)(OC)C[C@@H](C)C(=O)[C@H](C)[C@@H](O)[C@]1(C)O [CLARITHROMYCIN]	64 µg/mL (≈ 85.6 µM)	4 µg/mL (≈ 5.35 µM)	< 0.03 µg/mL	128 µg/mL (≈ 171 µM)
CC[C@H]1OC(=O)[C@H](C)[C@@H](O[C@H]2C[C@@](C)(OC)[C@@H](OC(=O)NCc3ccc(OC)cc3)[C@H](C)O2)[C@H](C)[C@@H](O[C@@H]2O[C@H](C)C[C@H](N(C)C)[C@H]2O)[C@](C)(O)C[C@@H](C)CN(C)[C@H](C)[C@H]2OC(=O)O[C@@]21C	8 µg/mL (≈ 8.53 µM)	0.25 µg/mL (≈ 0.266 µM)	< 0.03 µg/mL	16 µg/mL (≈ 17.1 µM)
CC[C@H]1OC(=O)[C@H](C)[C@@H](O[C@H]2C[C@@](C)(OC)[C@@H](OC(=O)NCCc3ccccc3Cl)[C@H](C)O2)[C@H](C)[C@@H](O[C@@H]2O[C@H](C)C[C@H](N(C)C)[C@H]2O)[C@](C)(O)C[C@@H](C)CN(C)[C@H](C)[C@@H](OC(=O)NCc2ccc(F)cc2)[C@]1(C)O	0.25 µg/mL (≈ 0.231 µM)	0.25 µg/mL (≈ 0.231 µM)	0.06 µg/mL (≈ 0.0555 µM)	4 µg/mL (≈ 3.7 µM)
CC[C@H]1OC(=O)[C@H](C)[C@@H](O[C@H]2C[C@@](C)(OC)[C@@H](OC(=O)NCCc3ccccc3Cl)[C@H](C)O2)[C@H](C)[C@@H](O[C@@H]2O[C@H](C)C[C@H](N(C)C)[C@H]2O)[C@](C)(O)C[C@@H](C)CN(C)[C@H](C)[C@@H](OC(=O)NCCc2ccc(O)cc2)[C@]1(C)O	0.25 µg/mL (≈ 0.229 µM)	0.06 µg/mL (≈ 0.0549 µM)	< 0.03 µg/mL	16 µg/mL (≈ 14.6 µM)
CC[C@H]1OC(=O)[C@H](C)[C@@H](O[C@H]2C[C@@](C)(OC)[C@@H](OC(=O)NCc3ccc(F)cc3)[C@H](C)O2)[C@H](C)[C@@H](O[C@@H]2O[C@H](C)C[C@H](N(C)C)[C@H]2O)[C@](C)(O)C[C@@H](C)CN(C)[C@H](C)[C@H]2OC(=O)O[C@@]21C	8 µg/mL (≈ 8.64 µM)	0.06 µg/mL (≈ 0.0648 µM)	< 0.03 µg/mL	4 µg/mL (≈ 4.32 µM)
CC[C@H]1OC(=O)[C@H](C)[C@@H](O[C@H]2C[C@@](C)(OC)[C@@H](OC(=O)NCCc3ccc(O)cc3)[C@H](C)O2)[C@H](C)[C@@H](O[C@@H]2O[C@H](C)C[C@H](N(C)C)[C@H]2O)[C@](C)(O)C[C@@H](C)CN(C)[C@H](C)[C@@H](OC(=O)NCCc2ccccc2Cl)[C@]1(C)O	0.25 µg/mL (≈ 0.229 µM)	0.25 µg/mL (≈ 0.229 µM)	< 0.03 µg/mL	16 µg/mL (≈ 14.6 µM)

Reference: ChEMBL document CHEMBL1153924, “Synthesis and antibacterial activity of 4'',11-di-O-arylalkylcarbamoyl azithromycin derivatives” (2009)
